Assay results published in patent US10945983B2, “Oleocanthal isolation and cancer treatment” (Board of Supervisors for the University of Louisiana System, priority 2016, dated 2021).
Where two headings read alike, the source gives them in different places.

Tests used:
[1] = tested on: MDA-MB-231/GFP human breast cancer cells; test: Orthotopic TNBC xenograft model in athymic mice; type: in vivo, athymic nude mice; details: intraperitoneal 5 mg/kg, 3× per week; previous experiments of the inventors
Experimental: MDA-MB-231/GFP human breast cancer cells were cultured and resuspended in serum-free DMEM medium (20 μl). After anesthesia, cell suspensions (1×10^6 cells/20 μl) were inoculated subcutaneously into the second mammary gland fat pad just beneath the nipple of each athymic nude mouse to generate orthotopic breast tumors. […] FIG. 20 is a line chart showing tumor size was evaluated periodically during treatment at indicated days postinoculation. Tumor volume (V) was calculated by V=L/2×W^2, where L was the length and W was the width of tumors. […]
Turning to FIGS. 20-23, in the current disclosure, as a future dietary candidate OC nano-emulsion oral in vivo antitumor efficacy was assessed using the same mouse model using MDA-MB-231/GFP human BC cells. […] The mice were monitored by measuring body weight, and observation of their physical behavior throughout the study. […]
MDA-MB-231/GFP human breast cancer cells were harvested, pelleted by centrifugation at 850×g for 5 minutes, and re-suspended in sterile serum-free DMEM medium (20 μL). […] The mice were monitored by measuring tumor volume, body weight, and clinical observation. Tumor volume (V) was calculated by V=L/2×W^2, where L was the length and W was the width of tumors. […]

[2] = tested on: BT-474 human BC cells; details: for BT-474 tumor weight inhibition vs vehicle: 3×/week, intraperitoneal, 60 days; for BT-474 tumor growth inhibition: 5×/week
Experimental: 5×10^6 cells/20 μL BT-474 human BC cells were sc inoculated into second mammary gland fat pad of athymic nude (Foxn1^nu/Foxn^1). […] Top panels show photographs of representative intact animal for each group. Bottom panels show photographs of excised primary tumor at experiment end.
Turning to FIGS. 28A-32, the HER2+ BC represents >15% of total BC cases with aggressive metastatic and highly resistant profile.

[3] = tested on: HER2+-ER+BT-474 BC cells; test: BT-474 recurrence after neoadjuvant lapatinib regimen; type: in vivo, athymic nude mice; details: OC 10 mg/kg, ip, 3×/week, additional 54 days after lapatinib 50 mg/kg for 60 days
Experimental: FIG. 36A is a photograph of representative animals of vehicle control group and two photographs showing circled tumor developed over the additional 54 days period. FIG. 36B is two photographs of representative animals that completed 60 days oral lapatinib 50 mg/kg group and two photographs of developed circled tumors after additional 54 days. FIG. 36C is two photographs of representative animals of 10 mg OC 1p, 3×/week group, and two photographs showing no tumor developed over the additional 54 days regimen.
(§1) The correlation between c-Met/HGF pathway and tumor resistance is documented. […] This was consistent with the OC c-Met inhibitory activity and previously shown growth and recurrence effects.

[4] = tested on: TNBC MDA-MB-231 BC cells; test: TNBC recurrence after neoadjuvant paclitaxel; type: in vivo; details: 10 mg/kg oral daily
Description: as §1

[5] = target: mTOR (Homo sapiens, UniProt P42345); details: read-out: IC50 mTOR enzymatic activity; cited from earlier work
[6] = tested on: BT-474 tumor recurrence; test: HER2+/ER+ BT-474 recurrence after primary tumor surgical excision; details: for recurrence tumor weight inhibition: additional 54 days after excision
Experimental: Female athymic nude mice used in previous experiment were anesthetized prior to the surgical excision procedure with ip ketamine/xylazine combination (100 mg/kg/15 mg/kg). 15-20 min after administering the anesthetic animal reflexes tested by gently tapping the hind legs with sterile syringe needle and finally their tumors were surgically excised and each wound was closed by one or two stitches. Ketoprofen, 1 mg/kg was used 12 hours before and 12 h after surgery for effective analgesia. Ophthalmic lubricant was used during the surgery to prevent corneal drying. Bupivicaine (0.25%, 1-2 drops), twice daily, was used topically at the excision wound site, local infiltration along surgery site during closure with a maximum dose of 2 mg/kg.

In the case of `C/C=C(/C=O)[C@@H](CC=O)CC(=O)OCCc1ccc(O)cc1` [OC, (-)-Oleocanthal], the tumor growth inhibition [1] is reported as 65%, the “BT-474 tumor weight inhibition vs vehicle” value ([2]; 5 mg/kg) is reported as 88.2% and the “BT-474 tumor weight inhibition vs vehicle” value ([2]; 10 mg/kg) is reported as 93.2%. The “tumor recurrence after lapatinib regimen” value [3] was “inhibited the HER2+-ER+BT-474 BC cells recurrence”, the “recurrence and chemoresistance after neoadjuvant paclitaxel” value [4] was “effectively inhibited in vivo recurrence and reversed chemoresistance” and the IC50 [5] was 708 nM. The “recurrence tumor weight inhibition” value ([6]; 10 mg/kg, ip, 3×/week) was 86.2%.

In the case of `CS(=O)(=O)CCNCc1ccc(-c2ccc3ncnc(Nc4ccc(OCc5cccc(F)c5)c(Cl)c4)c3c2)o1` [lapatinib, reference compound], the “BT-474 tumor growth inhibition” value ([2]; 12.5 mg oral dose) is reported as 85.9%, the “BT-474 tumor growth inhibition” value ([2]; 50 mg oral dose) is reported as 89.9% and the “recurrence tumor weight inhibition” value ([6]; 50 mg/kg, 5×/week oral) is reported as 81.4%. The body weight ([6]; lapatinib 50 mg/kg, additional 54 days) was “significant weight decrease”.
